From patent publication US9127079B2, “Inhibitors of phosphatase and tensin homolog (PTEN) conjugates” (THE UNIVERSITY OF BRITISH COLUMBIA, priority 2009, dated 2015)

How the values were obtained:
[1] = Cortical glucose metabolism by FDG-PET after cerebral ischemia; assay type: in vivo, rat; conditions: one week after treatment
Experimental: (§1) Adult male Sprague-Dawley rats (weight 200 g) were used in this study. All surgical procedures were performed using sterile/aseptic techniques in accordance with Institutional guidelines. Rats were anesthetized with chloral hydrate (0.4 g/kg IP) and subjected to cerebral ischemia. Ligation of the right middle cerebral artery (MCA) and bilateral common carotids arteries (CCAs) was performed by methods described previously (Shyu et al. 2005). The CCAs were clamped with non-traumatic arterial clips. The right MCA was ligated with a 10-0 nylone suture. After 90 min of ischemia, the suture on the MCA and the arterial clips on the CCAs were removed to allow reperfusion. Core body temperature was monitored with a thermistor probe (Hewlett-Packard™ Model 21090A probe, Hewlett-Packard Company™, Andover, Mass.), and maintained at 37° C. with a heating pad during anesthesia. After recovery from anesthesia, rat body temperature was maintained at 37° C. with a heat lamp. Experimental rats were subdivided into five groups receiving different types of interference peptides, all fused to a TAT protein transduction domain (PTEN-K13 (SEQ ID NO: 2) 2 hrs or 6 hrs, PTEN-K13R (SEQ ID NO: 3), PTEN-K289 (SEQ ID NO: 4), and vehicle control) via femoral vein with dosage of 8.4 mg/kg at 2 or 6 hours after MCA ligation for three consecutive days. […]

[2] = Forelimb grip strength after cerebral ischemia; assay type: in vivo, rat; conditions: before vs 28 days after ischemia
Experimental: as §1, with “anesthesia.” for “anesthesia. After recovery from anesthesia, rat body temperature was maintained at 37° C. with a heat lamp. Experimental rats were subdivided into five groups receiving different types of interference peptides, all fused to a TAT protein transduction domain (PTEN-K13 (SEQ ID NO: 2) 2 hrs or 6 hrs, PTEN-K13R (SEQ ID NO: 3), PTEN-K289 (SEQ ID NO: 4), and vehicle control) via femoral vein with dosage of 8.4 mg/kg at 2 or 6 hours after MCA ligation for three consecutive days.”
Behavioral assessments were measured on day 28 after stroke. […] The baseline-test scores were recorded in order to normalize those taken after cerebral ischemia. The elevated body swing test (EBST) was used to assess body asymmetry after MCA ligation and evaluated quantitatively as previously described (Shyu et al. 2004). […] The frequency of initial head swing contra-lateral to the ischemic side was counted in twenty continuous tests and was normalized, as follows: % recovery=[1−(lateral swings in twenty tests−10)/10×100%. […]

PTEN = test: Western blotting of nuclear fractions from cultured neurons: PTEN nuclear translocation; assay type: cell-based, rat; conditions: NMDA stimulation
Experimental: Dissociated cultures of rat cortical or hippocampal neurons were prepared from 18-d-old Sprague Dawley rat embryos as described previously (Mielke and Wang 2005). To obtain mixed cultures enriched with neurons, uridine (10 μM) and 5-Fluor-T-deoxyuridine (10 μM) were added to the culture medium at 3 d in vitro (DIV) and maintained for 48 h to inhibit non-neuronal cell proliferation before the cultures were returned to the normal culture medium. Mature neurons (12-14 DIV) were used for experiments.
In order to induce excitotoxicity, 12-14 DIV cultured neurons were washed and transferred to Mg2+-free extracellular solution (ECS) containing the following (in mM): 25 HEPES acid, 140 NaCl, 33 glucose, 5.4 KCl, and 1.3 CaCl2, with pH 7.35 and osmolarity 320-330 mOsm. […]
For western blotting, 10 μg of the nuclear extract or 40 μg of total cell lysate (solubilized by 1% SDS, 1 mM EGTA, 1 mM EDTA, 1 mM DTT, 2 mM sodium orthovanadate, and protease inhibitors cocktail in PBS) from each treatment condition was separated with SDS-PAGE, transferred onto a polyvinylidene difluoride (PVDF) membrane, and probed with the relevant antibodies. […] Band intensities were quantified using NIH ImageJ™ software and normalized to the quantity of a nuclear marker or β-tubulin in each sample lane.

With “KEIVSRNKRRYQED-YGRKKRRQRRR (KEIVSRNKRRYQEDYGRKKRRQRRR; PTEN K13 interference peptide conjugated to TAT protein transduction domain) [Peptide-K13]” the “FDG uptake over the right cortex (microPET)” value ([1]; i.v. 8.4 mg/kg given 2 hours after ischemia onset) was “striking increase”, the “FDG uptake over the right cortex (microPET)” value ([1]; i.v. 8.4 mg/kg given 6 hours after ischemia onset) was “striking increase” and the “forelimb grip strength ratio” value ([2]; given 2 hours after ischemia) was “much better strength ratio”. For the same substance, the “forelimb grip strength ratio” value ([2]; given 6 hours after ischemia) was “much better strength ratio” and the “PTEN nuclear translocation (western blotting of nuclear fractions)” value (PTEN) was “prevents PTEN nuclear translocation”.
